These are literature values, as cited in US20140004171A1, “TREATMENT OF ENDOMETRIOSIS BY INTRAVAGINAL ADMINISTRATION OF A LOW DOSE OF A SELECTIVE PROGESTERONE RECEPTOR MODULATOR (SPRM), ANTI-PROGESTIN, OR ANTI-PROGESTATIONAL AGENT” (ARSTAT Inc., priority 2011, published 2014).

One data set deals with liver enzymes. The conditions noted are these: oral.
In data set [1] the test system is endometrial lining of the uterus. The conditions noted are these: oral.
Data set [2] relates to women with endometriosis. The conditions noted are these: oral, 50 mg daily for 6 months, nine women.
Data set [3] concerns women with endometriosis. The conditions noted are these: oral, 5 mg daily for 6 months, seven women.
The subject of data set [4] is women with endometriosis. The conditions noted are these: oral, 100 mg daily for three months.
Data set [5] concerns uterine and fibroid volumes.

`COCC(=O)[C@@]1(OC(C)=O)CC[C@H]2[C@@H]3CCC4=CC(=O)CCC4=C3[C@@H](c3ccc(N(C)C)cc3)C[C@@]21C` [CDB-4124]: the “Safety finding that suspended Phase III studies” value with liver enzymes is reported as “significant increases in liver enzymes”.
For the compound `COC[C@]1(OC)CC[C@H]2[C@@H]3CCC4=CC(=O)CCC4=C3[C@@H](c3ccc(/C=N/O)cc3)C[C@@]21C` [asoprisnil], the “Safety finding that terminated Phase III studies” value in data set [1] is given as “changes in the endometrial lining of the uterus”.
Regarding `CC#C[C@]1(O)CC[C@H]2[C@@H]3CCC4=CC(=O)CCC4=C3[C@@H](c3ccc(N(C)C)cc3)C[C@@]21C` [mifepristone], in the data set on women with endometriosis [2], the Amenorrhea without hypoestrogenism entry was “All patients”; the “Pelvic pain and uterine cramping improved” value was “all patients”; the “Regression of endometriosis (laparoscopic assessment of endometrial implants, AFS score)” value is on record as 55%. In the data set with women with endometriosis [3], the Cyclic bleeding ceased result was “all patients”, the “Decrease of mean endometriosis scores” value is recorded as 20% and the Pelvic pain improved result is listed as “six of seven”. Moreover, in the data set with women with endometriosis [4] (six normally cycling women with endometriosis), the Amenorrhea reported entry is given as “all study participants”. In the data set with women with endometriosis [4] (six women), the “Change in the extent of endometriosis (follow-up laparoscopy)” value is “no significant change” and the “Improvement in pelvic pain” value was “all women”. In addition, in data set [5], the “Oral dose effective in the reduction of uterine and fibroid volumes and related symptoms” value is reported as at least 10 mg/day. Moreover, in data set [5] (oral, 2.5 mg/day), the Incidence of amenorrhea result is “lower incidence of amenorrhea” and the “Reduction of uterine volume” value was “appreciably smaller reduction of uterine volume”. Further, the “Ability to reduce uterine volume and eliminate some fibroid-related symptoms” value in data set [5] (oral, 5 mg/day) is recorded as “limited”. The “Incidence of side effects (endometrial hyperplasia, hot flashes, elevated liver enzymes)” value in data set [5] (oral, 10 mg/day or higher) is given as “greater than desired”.
